Laboratory results taken from patent US8952054B2, “Small molecule inhibitors of MUC1 and methods of identifying the same” (Dana-Farber Cancer Institute, Inc., priority 2010, dated 2015).
Entries after “also recorded” stand apart in the source; their conditions may differ.

Columns and labels:
His-MUC1-CD = molecular target: T1, His-MUC1-CD (Homo sapiens, UniProt P15941); assay: In-gel in vitro MUC1-CD dimerization/oligomerization assay (non-reducing SDS-PAGE, anti-MUC1-C immunoblot); type: biochemical; conditions: 1 h at room temperature; for formation of MUC1-CD dimers, soluble protein: 1 mM compound
T1 construct: made in house
T1 sequence (P15941 1184-1255): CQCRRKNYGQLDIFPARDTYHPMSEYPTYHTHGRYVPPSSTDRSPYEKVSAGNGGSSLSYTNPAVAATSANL
Protocol: (§1) FIGS. 1A-D. MUC1/CQC peptide blocks MUC1 oligomerization. (FIG. 1A) Schematic representation of the MUC1-C subunit and the 72-amino acid sequence of MUC1-CD (SEQ ID NO: 1) are shown. The N-terminal 15 amino acids (shaded sequence) MUC1/CQC (SEQ ID NO: 10) and mutated MUC1/AQA (SEQ ID NO: 11) peptides were synthesized with the poly-dArg transduction domain. (FIG. 1B) His-MUC1-CD (1.4 mg/ml) was immobilized on a sensor chip in a BIAcore. MUC1/CQC was injected over the chip at 10 μM. Raw binding data were analyzed by BIAevaluation software version 3.0 and fit to a 1:1 Languir binding model. (FIG. 1C) Purified His-MUC1-CD (1.5 mg/ml) was incubated with PBS, 200 μM MUC1/CQC or 200 μM MUC1/AQA for 1 h at room temperature. The proteins were separated in a non-reducing SDS-polyacrylamide gel and analyzed by immunoblotting with anti-MUC1-C. (FIG. 1D) 293 cells were transiently transfected to express an empty vector or GFP-MUC1-CD and Flag-MUC1-CD. At 48 h after transfection, the cells were treated with 5 μM MUC1/CQC or MUC1/AQA for 3 d. The cells were then harvested for immunoblotting with anti-MUC1-C (left panel). Whole cell lysates were also precipitated with anti-Flag and the precipitates were immunoblotted with the indicated antibodies (right panels).
FIG. 7—GO-201 blocks MUC1 oligomerization. Purified His-MUC1-CD was incubated with PBS (control), GO-201, or CP-1 for 1 hr at room temperature. The proteins were separated in a non-reducing SDS-polyacrylamide gel (SDS-PAGE) and analyzed by immunoblotting with anti-MUC1-C antibodies. The formation of dimers and tetramers was inhibited by incubation with GO-201.
FIGS. 12A-D—Apigenin is an inhibitor of MUC1-CD dimerization in vitro and in cells. (FIG. 12A) Structures of apigenin and its analogue baicalein. Using the in vitro screening assay, dimerization of MUC1-CD was assessed in the presence of 100 μM apigenin or 100 μM baicalein each dissolved in 0.1% DMSO. The results (mean±SD of 3 determinations) are expressed as percentage of control dimerization in the presence of DMSO alone. (FIG. 12B) MUC1-CD dimerization was assessed in the presence of the indicated concentrations of apigenin in the in vitro screening assay. […] (FIG. 12C) Soluble MUC1-CD was incubated in the presence of 1% DMSO, 1 mM apigenin or 1 mM baicalein for 1 h at room temperature. Monomers and dimmers were assessed by electrophoresis in a non-reducing gel and immunoblotting with anti-MUC1-C. (FIG. 12D) 293 cells were transiently transfected to express an empty vector or GFP-MUC1-CD and Flag-MUC1-CD. […]
(§2) Purified His-tagged MUC1-CD protein also forms dimers and oligomers when incubated in a buffer in vitro, and these can be detected by electrophoresis in polyacrylamide gels. […] Following extensive washings, the proteins are separated in a non-reducing SDS-polyacrylamide gel and analyzed by immunoblotting with anti-MUC1-CD antibody.
As a positive control for validation of this assay for secondary screening, purified His-MUC1-CD is incubated with either PBS or with GO-201 (CQC peptide) for 1 hr at room temperature. The proteins are separated in a non-reducing SDS-polyacrylamide gel and analyzed by immunoblotting with anti-MUC1-CD antibody.
as §2, with “protein” for “protein also”, “as” for “and these can be”, “antibody. […]” for “antibody.”

[1] = molecular target: T2, GFP-MUC1-CD and Flag-MUC1-CD (Homo sapiens, UniProt P15941); assay: Inhibition of dimerization of MUC1-CD in cyto (coprecipitation in transfected 293 cells); type: cell-based; conditions: for formation of MUC1-CD dimers (anti-Flag precipitates, anti-GFP blot): 75 μM for 3 days
T2 construct: expressed in transfected cells; host or cells: HEK 293 cells (no endogenous MUC1)
T2 sequence (P15941 1184-1255 limits assumed): T1 sequence (P15941 1184-1255)
Protocol: as §1
FIG. 8—293 cells transiently transfected to express an empty vector or GFP-MUC1-CD and Flag-MUC1-CD. At 48 he after transfection, cells were left untreated (control), or treated with 5 μmol/L GO-201 or CP-1 each day for 3 days. The cells were then harvested for immunoblotting with anti-MUC1-C (left). Whole-cell lysates were also precipitated with anti-Flag and the precipitates were immunoblotted with the indicated antibodies (right).
FIGS. 12A-D—Apigenin is an inhibitor of MUC1-CD dimerization in vitro and in cells. (FIG. 12A) Structures of apigenin and its analogue baicalein. Using the in vitro screening assay, dimerization of MUC1-CD was assessed in the presence of 100 μM apigenin or 100 μM baicalein each dissolved in 0.1% DMSO. The results (mean±SD of 3 determinations) are expressed as percentage of control dimerization in the presence of DMSO alone. (FIG. 12B) MUC1-CD dimerization was assessed in the presence of the indicated concentrations of apigenin in the in vitro screening assay. […] (FIG. 12C) Soluble MUC1-CD was incubated in the presence of 1% DMSO, 1 mM apigenin or 1 mM baicalein for 1 h at room temperature. Monomers and dimmers were assessed by electrophoresis in a non-reducing gel and immunoblotting with anti-MUC1-C. (FIG. 12D) 293 cells were transiently transfected to express an empty vector or GFP-MUC1-CD and Flag-MUC1-CD. At six hours after transfection, the cells were left untreated, and treated with 75 μM apigenin or baicalein for 3 days. Whole-cell lysates were precipitated with anti-Flag, and the precipitates were immunoblotted with the indicated antibodies.
Two different versions of MUC1-CD vectors have been generated for transformation of cells: GFP-MUC1-CD and Flag-MUC1-CD. […] At 48 hr post-transfection, cells are incubated with the selected compounds from the primary and/or secondary screening assays. Cells are then harvested and used for immunoblotting with anti-MUC1-C. Total cell lysates are subjected to immunoprecipitation with anti-GFP antibody and the adsorbates are analyzed by immunoblotting with anti-Flag antibody.
293 cells were transfected with vectors expressing GFP, GFP-MUC1-CD or Flag-MUC1-CD in the presence of Lipofectamine as described (Leng et al., 2007).
The inventors generated two different versions of MUC1-CD vectors for transfecting into cells: GFP-MUC1-CD and Flag-MUC1-CD. […] At 48 hours post-transfection, cells are incubated with selected compounds. The cells were harvested for immunoblotting with anti-MUC1-C. Total cell lysates are subjected to immunoprecipitation with anti-GFP antibody and the adsorbates are analyzed by immunoblotting with anti-Flag antibody. An inhibitor of MUC1-CD dimerization will inhibit dimerization of MUC1-CD in cyto. […]

[2] = transfected 293 cells, 5 μM peptide for 3 d

Row | Compound | His-MUC1-CD oligomer formation (His-MUC1-CD; 200 μM peptide) | His-MUC1-CD oligomer formation (His-MUC1-CD; GO-201 positive control) | interaction between Flag-MUC1-CD and GFP-MUC1-CD [1, 2] | interaction between Flag-MUC1-CD and GFP-MUC1-CD ([1]; transfected HEK 293 cells, 5 μM GO-201 or CP-1 each day for 3 days) | interaction between Flag-MUC1-CD and GFP-MUC1-CD ([1]; transfected HEK 293 cells, 5 mM GO-201 as printed) | formation of MUC1-CD dimers, soluble protein (His-MUC1-CD) | formation of MUC1-CD dimers (anti-Flag precipitates, anti-GFP blot) ([1]; transfected 293 cells)
1 | CC[C@H](C)[C@H](NC(=O)[C@H](CC(=O)O)NC(=O)[C@H](CC(C)C)NC(=O)[C@H](CCC(N)=O)NC(=O)CNC(=O)[C@H](Cc1ccc(O)cc1)NC(=O)[C@H](CC(N)=O)NC(=O)[C@H](CCCCN)NC(=O)[C@H](CCCNC(=N)N)NC(=O)[C@H](CCCNC(=N)N)NC(=O)[C@H](CS)NC(=O)[C@H](CCC(N)=O)NC(=O)[C@H](CS)NC(=O)[C@@H](CCCNC(=N)N)NC(=O)[C@@H](CCCNC(=N)N)NC(=O)[C@@H](CCCNC(=N)N)NC(=O)[C@@H](CCCNC(=N)N)NC(=O)[C@@H](CCCNC(=N)N)NC(=O)[C@@H](CCCNC(=N)N)NC(=O)[C@@H](CCCNC(=N)N)NC(=O)[C@@H](CCCNC(=N)N)NC(=O)[C@H](N)CCCNC(=N)N)C(=O)N[C@@H](Cc1ccccc1)C(=O)N1CCC[C@H]1C(=O)O [MUC1/CQC] | substantially decreased oligomer formation | substantially decreases oligomer formation; also recorded: inhibited | disruption of the interaction | disruption of the interaction | disruption of the interaction | – | –
2 | O=c1cc(-c2ccccc2)oc2cc(O)c(O)c(O)c12 [Baicalein, 5,6,7-trihydroxyflavone, reference compound] | – | – | – | – | – | little effect | not
3 | MUC1/AQA: control peptide in which the CQC motif was altered to AQA (SEQ ID NO: 11) (AQARRKNYGQLDIFP) [reference compound] | little if any effect | – | no apparent effect | – | – | – | –
4 | O=c1cc(-c2ccc(O)cc2)oc2cc(O)cc(O)c12 [Apigenin, 4′,5,7-trihydroxyflavone] | – | – | – | – | – | completely blocked | completely blocked
